ChEMBL document CHEMBL1255394, “Antimicrobial susceptibilities of multidrug-resistant Campylobacter jejuni and C. coli strains: in vitro activities of 20 antimicrobial agents” (2010)
Converted amounts (≈) assume the structure as drawn.

Experiments:
Assay type in all cases: functional
[1] = system: Campylobacter sp.; assay: Antibacterial activity against erythromycin resistant Campylobacter sp. assessed as resistance breakpoint by CLSI method
[2] = system: Campylobacter sp.; assay: Antibacterial activity against erythromycin resistant Campylobacter sp. by agar plate dilution method
[3] = system: Campylobacter coli; assay: Antibacterial activity against Campylobacter coli assessed as resistant isolates by disk diffusion method
[4] = system: Campylobacter sp.; assay: Antibacterial activity against Campylobacter sp. assessed as resistance breakpoint by CLSI method
[5] = system: Campylobacter jejuni; assay: Antibacterial activity against Campylobacter jejuni assessed as resistant isolates by disk diffusion method
[6] = system: Campylobacter sp.; assay: Antibacterial activity against erythromycin susceptible Campylobacter sp. by agar plate dilution method
[7] = system: Campylobacter sp.; assay: Antibacterial activity against erythromycin susceptible Campylobacter sp. assessed as resistance breakpoint by CLSI method
[8] = system: Campylobacter sp.; assay: Antimicrobial activity against erythromycin resistant Campylobacter sp. assessed as clear zone of inhibition by disk diffusion method
[9] = system: Campylobacter sp.; assay: Antimicrobial activity against erythromycin susceptible Campylobacter sp. assessed as clear zone of inhibition by disk diffusion method
[10] = system: Campylobacter sp.; assay: Antibacterial activity against Campylobacter sp. assessed as resistance breakpoint by EUCAST method
[11] = system: Campylobacter sp.; assay: Antibacterial activity against erythromycin susceptible Campylobacter sp. after 48 hrs by Etest method
[12] = system: Campylobacter sp.; assay: Antibacterial activity against erythromycin resistant Campylobacter sp. after 48 hrs by Etest method

Compound | Activity [1] [%] | MIC50 [2] [µg/mL] | MIC90 [2] [µg/mL] | Activity [3] [%] | Activity [4] [µg/mL] | Activity [5] [%] | MIC50 [6] [µg/mL] | MIC90 [6] [µg/mL] | Activity [7] [%] | inhibition zone (IZ) [8] | inhibition zone (IZ) [9] [mm] | Activity [10] [µg/mL] | MIC50 [11] [µg/mL] | MIC90 [11] [µg/mL] | MIC50 [12] [µg/mL] | MIC90 [12] [µg/mL]
CC1(C)S[C@@H]2[C@H](NC(=O)[C@H](N)c3ccccc3)C(=O)N2[C@H]1C(=O)O [AMPICILLIN] | 36.8 | 8 (≈ 22.9 µM) | 128 (≈ 366 µM) | 22.2 | 32 | 18.2 | 0.5 (≈ 1.43 µM) | 32 (≈ 91.6 µM) | 16.6 |  |  |  |  |  |  | 
CC[C@H]1OC(=O)[C@H](C)[C@@H](O[C@H]2C[C@@](C)(OC)[C@@H](O)[C@H](C)O2)[C@H](C)[C@@H](O[C@@H]2O[C@H](C)C[C@H](N(C)C)[C@H]2O)[C@](C)(O)C[C@@H](C)CN(C)[C@H](C)[C@@H](O)[C@]1(C)O [AZITHROMYCIN] | 89.5 | > 128 | > 128 | 38.9 | 4 | 5 | 0.25 (≈ 0.334 µM) | 0.5 (≈ 0.668 µM) | 0.5 |  |  |  |  |  |  | 
O=C(N[C@H](CO)[C@H](O)c1ccc([N+](=O)[O-])cc1)C(Cl)Cl [CHLORAMPHENICOL] | 0 | 4 (≈ 12.4 µM) | 16 (≈ 49.5 µM) | 0 | 32 | 0.5 | 0.125 (≈ 0.387 µM) | 8 (≈ 24.8 µM) | 0.5 |  |  |  |  |  |  | 
O=C(O)c1cn(C2CC2)c2cc(N3CCNCC3)c(F)cc2c1=O [CIPROFLOXACIN] |  | 16 (≈ 48.3 µM) | > 32 |  |  | 42.4 | 0.5 (≈ 1.51 µM) | 1 (≈ 3.02 µM) |  |  |  |  |  |  |  | 
CC[C@H]1OC(=O)[C@H](C)[C@@H](O[C@H]2C[C@@](C)(OC)[C@@H](O)[C@H](C)O2)[C@H](C)[C@@H](O[C@@H]2O[C@H](C)C[C@H](N(C)C)[C@H]2O)[C@](C)(OC)C[C@@H](C)C(=O)[C@H](C)[C@@H](O)[C@]1(C)O [CLARITHROMYCIN] |  | > 128 | > 128 |  |  |  | 0.25 (≈ 0.334 µM) | 128 (≈ 171 µM) |  |  |  |  |  |  |  | 
CCC[C@@H]1C[C@@H](C(=O)N[C@@H]([C@H]2O[C@H](SC)[C@H](O)[C@@H](O)[C@H]2O)[C@H](C)Cl)N(C)C1 [CLINDAMYCIN] | 89.5 | 64 (≈ 151 µM) | 64 (≈ 151 µM) | 50 | 8 | 5 | 2 (≈ 4.71 µM) | 4 (≈ 9.41 µM) | 1.4 |  |  |  |  |  |  | 
CC[C@H]1OC(=O)[C@H](C)[C@@H](O[C@H]2C[C@@](C)(OC)[C@@H](O)[C@H](C)O2)[C@H](C)[C@@H](O[C@@H]2O[C@H](C)C[C@H](N(C)C)[C@H]2O)[C@](C)(O)C[C@@H](C)C(=O)[C@H](C)[C@@H](O)[C@]1(C)O [ERYTHROMYCIN] | 100 | > 128 | > 128 | 50 | 16 | 4.5 | 2 (≈ 2.73 µM) | 4 (≈ 5.45 µM) | 0 | <=23 mm | >23 |  |  |  |  | 
C[C@@H](O)[C@H]1C(=O)N2C(C(=O)O)=C(SCCNC=N)C[C@H]12 [IMIPENEM ANHYDROUS] | 0 | 0.25 (≈ 0.835 µM) | 0.5 (≈ 1.67 µM) | 0 | 16 | 0 | 0.016 (≈ 0.0534 µM) | 0.25 (≈ 0.835 µM) | 0 |  |  |  |  |  |  | 
C[C@H]1COc2c(N3CCN(C)CC3)c(F)cc3c(=O)c(C(=O)O)cn1c23.C[C@H]1COc2c(N3CCN(C)CC3)c(F)cc3c(=O)c(C(=O)O)cn1c23.O [LEVOFLOXACIN] | 78.9 | 8 |  | 72.2 | 8 | 34.5 | 1 | > 64 | 33.6 |  |  |  |  |  |  | 
C[C@@H](O)[C@H]1C(=O)N2C(C(=O)O)=C(S[C@@H]3CN[C@H](C(=O)N(C)C)C3)[C@H](C)[C@H]12 [MEROPENEM] | 0 | ≤ 0.03 | 0.25 (≈ 0.652 µM) | 0 | 16 | 0 | 4 (≈ 10.4 µM) | 64 (≈ 167 µM) | 0 |  |  |  |  |  |  | 
COc1c(N2C[C@@H]3CCCN[C@@H]3C2)c(F)cc2c(=O)c(C(=O)O)cn(C3CC3)c12 [MOXIFLOXACIN] |  | 2 (≈ 4.98 µM) | 16 (≈ 39.9 µM) |  |  |  | ≤ 0.03 | 0.125 (≈ 0.311 µM) |  |  |  |  |  |  |  | 
CCn1cc(C(=O)O)c(=O)c2ccc(C)nc21 [NALIDIXIC ACID] | 94.7 | 128 (≈ 551 µM) | 128 (≈ 551 µM) | 83.3 | 32 | 41.4 | 2 (≈ 8.61 µM) | 8 (≈ 34.4 µM) | 40.1 |  |  |  |  |  |  | 
CCn1cc(C(=O)O)c(=O)c2cc(F)c(N3CCNCC3)cc21 [NORFLOXACIN] | 94.7 | 64 (≈ 200 µM) | > 64 | 83.3 | 16 | 40.9 | 8 (≈ 25.1 µM) | 256 (≈ 802 µM) | 39.6 |  |  |  |  |  |  | 
CC1COc2c(N3CCN(C)CC3)c(F)cc3c(=O)c(C(=O)O)cn1c23 (centres undefined) [OFLOXACIN] | 84.2 | 16 (≈ 44.3 µM) | 64 (≈ 177 µM) | 83.3 | 8 | 40.9 | 0.25 (≈ 0.692 µM) | 32 (≈ 88.6 µM) | 40.6 |  |  |  |  |  |  | 
N[C@@H]1CN(c2c(F)cc3c(=O)c(C(=O)O)cn([C@@H]4C[C@@H]4F)c3c2Cl)CC12CC2 [SITAFLOXACIN ANHYDROUS] |  | 0.125 (≈ 0.305 µM) | 0.5 (≈ 1.22 µM) |  |  |  | 0.5 (≈ 1.22 µM) | 1 (≈ 2.44 µM) |  |  |  |  |  |  |  | 
CC[C@H]1OC(=O)[C@H](C)C(=O)[C@H](C)[C@@H](O[C@@H]2O[C@H](C)C[C@H](N(C)C)[C@H]2O)[C@](C)(OC)C[C@@H](C)C(=O)[C@H](C)[C@H]2N(CCCCn3cnc(-c4cccnc4)c3)C(=O)O[C@]12C [TELITHROMYCIN] |  | 32 (≈ 39.4 µM) | > 128 |  |  |  | 0.064 (≈ 0.0788 µM) | 0.25 (≈ 0.308 µM) |  |  |  |  |  |  |  | 
CN(C)[C@@H]1C(O)=C(C(N)=O)C(=O)[C@@]2(O)C(O)=C3C(=O)c4c(O)cccc4[C@@](C)(O)[C@H]3C[C@@H]12 [TETRACYCLINE] | 73.7 | 128 (≈ 288 µM) | > 128 | 66.7 | 16 | 28.1 | 2 (≈ 4.5 µM) | 8 (≈ 18 µM) | 26.9 |  |  |  |  |  |  | 
CN(C)c1cc(NC(=O)CNC(C)(C)C)c(O)c2c1C[C@H]1C[C@H]3[C@H](N(C)C)C(O)=C(C(N)=O)C(=O)[C@@]3(O)C(O)=C1C2=O [TIGECYCLINE] | 0 |  |  | 0 | 0.5 | 0 |  |  | 0 |  |  | >0.5 | 0.008 (≈ 0.0137 µM) | 0.032 (≈ 0.0546 µM) | 0.008 (≈ 0.0137 µM) | 0.023 (≈ 0.0393 µM)
GENTAMICIN | 0 | 0.5 | 0.5 | 0 | 16 | 0.9 | 4 | 64 | 0.9 |  |  |  |  |  |  | 
